The text below walks through data of patent EP4653444A1, “FUSED TRICYCLIC COMPOUND AS KINASE INHIBITOR” (Hangzhou Innogate Pharma Co., Ltd., priority 2023, dated 2024).

The target of one data set is T1, ULK2 kinase (Homo sapiens, UniProt Q8IYT8).
T1 sequence (Q8IYT8 1-1036): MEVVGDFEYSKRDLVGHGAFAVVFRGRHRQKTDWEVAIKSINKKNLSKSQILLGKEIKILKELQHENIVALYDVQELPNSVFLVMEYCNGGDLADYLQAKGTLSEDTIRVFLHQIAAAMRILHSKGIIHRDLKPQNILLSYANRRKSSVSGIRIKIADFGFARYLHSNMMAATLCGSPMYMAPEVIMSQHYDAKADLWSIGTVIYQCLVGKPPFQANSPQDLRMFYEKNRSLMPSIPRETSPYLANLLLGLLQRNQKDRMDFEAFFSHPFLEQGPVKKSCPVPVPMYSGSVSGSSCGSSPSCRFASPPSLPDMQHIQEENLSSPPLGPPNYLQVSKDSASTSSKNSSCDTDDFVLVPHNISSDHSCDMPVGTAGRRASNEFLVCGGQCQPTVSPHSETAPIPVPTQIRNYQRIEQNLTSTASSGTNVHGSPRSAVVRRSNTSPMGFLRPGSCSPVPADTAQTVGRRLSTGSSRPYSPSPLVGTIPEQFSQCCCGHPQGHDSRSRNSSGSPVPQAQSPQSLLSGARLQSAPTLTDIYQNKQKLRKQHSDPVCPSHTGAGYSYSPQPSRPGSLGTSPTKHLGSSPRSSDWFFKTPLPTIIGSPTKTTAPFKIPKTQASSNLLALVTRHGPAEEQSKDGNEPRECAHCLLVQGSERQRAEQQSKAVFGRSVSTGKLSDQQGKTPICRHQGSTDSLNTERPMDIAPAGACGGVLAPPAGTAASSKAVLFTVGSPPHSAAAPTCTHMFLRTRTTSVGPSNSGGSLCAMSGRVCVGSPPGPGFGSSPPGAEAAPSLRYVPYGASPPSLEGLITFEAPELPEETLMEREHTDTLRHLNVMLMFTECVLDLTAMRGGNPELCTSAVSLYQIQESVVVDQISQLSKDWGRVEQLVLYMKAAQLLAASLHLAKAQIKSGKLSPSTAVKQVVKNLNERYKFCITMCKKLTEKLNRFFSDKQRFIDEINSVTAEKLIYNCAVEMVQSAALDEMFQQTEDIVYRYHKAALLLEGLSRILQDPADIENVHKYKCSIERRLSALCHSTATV
The data set is described as follows: ULK kinase activity inhibition assay (ADP-Glo). The class given is biochemical. As to the method:
(§1) The ADP-Glo method was used to evaluate the inhibitory activity of the compounds against ULK1 and ULK2 kinases. Prepare 1× kinase reaction buffer (final working concentrations: HEPES 50 mM, MgCl2 10 mM, Brij35 0.01%, EGTA 1 mM, DTT 2 mM). Prepare 2× kinase and […] substrate solutions: ULK1 kinase at 0.5 nM; substrate mix containing ATP at 100 µM and MBP at 0.1 mg/mL. ULK2 kinase at 0.15 nM; substrate mix containing ATP at 6 µM and MBP at 0.1 mg/mL. Compounds were serially diluted in DMSO and shaken on a shaker for 20 minutes. Prepare 2× kinase using 1× kinase reaction buffer. Transfer 20 nL of compound into a 384-well plate. Add 2 µL of kinase to each well of the reaction plate. Seal the plate with sealing film, centrifuge at 1000 rpm for 60 seconds, and incubate at 25°C for 10 minutes. Prepare 2× ATP & MBP mixture using 1× kinase reaction buffer and add 2 µL to each well. Seal the plate, centrifuge at 1000 rpm for 60 seconds, and incubate at 25°C for 60 minutes. Add 4 µL ADP-Glo reagent to the 384-well plate, centrifuge at 1000 rpm for 1 minute, and incubate at 25°C for 40 minutes. Then, add 8 µL Detection Reagent, centrifuge at 1000 rpm for 1 minute, and incubate at 25°C for 40 minutes. Read the RLU (Relative Luminescence Unit) signal using a BMG plate reader to indicate kinase activity. Inhibition rate was calculated as: % Inhibition = 100% - [(Compound - Positive Control)/(Negative Control - Positive Control)] × 100%. IC50 values (half-maximal inhibitory concentration) were calculated by nonlinear regression using GraphPad Prism 7.0. Y = Bottom + (Top - Bottom)/(1 + 10^((LogIC50 - X) × Hill Slope)), where X is the log of compound concentration and Y is the % inhibition.

The next data set has as its target T2, ULK1 kinase (Homo sapiens, UniProt O75385).
T2 sequence (O75385 1-1050): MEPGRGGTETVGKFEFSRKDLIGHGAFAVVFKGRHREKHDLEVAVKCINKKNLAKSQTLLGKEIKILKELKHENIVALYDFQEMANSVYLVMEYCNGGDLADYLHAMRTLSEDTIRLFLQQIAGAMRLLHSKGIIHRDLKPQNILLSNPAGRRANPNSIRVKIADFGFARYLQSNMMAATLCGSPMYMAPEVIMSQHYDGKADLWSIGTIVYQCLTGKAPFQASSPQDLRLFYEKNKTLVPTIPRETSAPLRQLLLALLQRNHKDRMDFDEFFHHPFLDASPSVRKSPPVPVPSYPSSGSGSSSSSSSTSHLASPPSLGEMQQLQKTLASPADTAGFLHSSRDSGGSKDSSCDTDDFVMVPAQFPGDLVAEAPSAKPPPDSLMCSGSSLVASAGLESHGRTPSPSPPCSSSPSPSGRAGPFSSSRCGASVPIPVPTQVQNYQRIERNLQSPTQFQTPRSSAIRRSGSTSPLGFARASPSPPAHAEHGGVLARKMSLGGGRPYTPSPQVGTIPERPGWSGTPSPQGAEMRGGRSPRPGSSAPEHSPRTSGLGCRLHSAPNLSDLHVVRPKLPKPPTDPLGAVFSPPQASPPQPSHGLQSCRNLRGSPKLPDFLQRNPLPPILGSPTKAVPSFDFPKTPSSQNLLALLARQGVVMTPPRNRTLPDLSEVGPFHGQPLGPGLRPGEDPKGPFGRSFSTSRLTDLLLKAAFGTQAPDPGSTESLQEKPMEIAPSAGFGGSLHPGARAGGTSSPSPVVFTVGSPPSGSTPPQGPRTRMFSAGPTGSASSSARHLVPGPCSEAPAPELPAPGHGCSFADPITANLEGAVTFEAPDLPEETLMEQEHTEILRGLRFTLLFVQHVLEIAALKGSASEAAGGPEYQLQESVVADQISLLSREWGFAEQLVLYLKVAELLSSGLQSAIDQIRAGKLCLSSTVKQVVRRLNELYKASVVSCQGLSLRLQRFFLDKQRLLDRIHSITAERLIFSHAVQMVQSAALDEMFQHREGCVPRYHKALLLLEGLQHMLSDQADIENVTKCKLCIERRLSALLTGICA
The data set is described as follows: ULK kinase activity inhibition assay (ADP-Glo). The class given is biochemical. As to the method: as §1

Data set [1] is described as follows: Pharmacokinetic study in rats. Conditions: rat, plasma, po, 3 mg/kg.
For the next data set, the target named is FAK kinase (Homo sapiens, UniProt Q05397). The data set can be described thus: FAK kinase activity inhibition assay, method A (HTRF). It is filed as biochemical. As to the method: The HTRF method was used to evaluate the inhibitory activity of the compounds against FAK kinase. […]. The reaction conditions were: FAK kinase at 0.1 ng/µL; ATP 10 µM; substrate concentration 1 µM. Compounds were serially diluted in DMSO and shaken on a shaker for 20 minutes. Prepare 2× kinase using 1× reaction buffer. Transfer 25 nL compound to a 384-well plate using Echo 655. Add 2.5 µL kinase per well. Seal the plate with sealing film, centrifuge at 1000 rpm for 60 seconds, and incubate at 25°C for 12 hours. Prepare 2× ATP/substrate mix using 1× enzyme reaction buffer and add 2.5 µL 2× ATP/substrate mix per well. Seal the plate with sealing film, centrifuge at 1000 rpm for 60 seconds, and incubate at 25°C for 50 minutes. Prepare 2×XL665 & antibody solution using HTRF detection buffer, and add 5 µL per well. Incubate at 25°C for 60 minutes. Read fluorescence at 620 nm (Cryptate) and 665 nm (XL665). Calculate the ratio per well (Ratio_665/620 nm). % Inhibition = 100% - [(Compound Ratio - Positive Control Ratio)/ (Negative Control Ratio - Positive Control Ratio)] × 100%. IC50 values (half-maximal inhibitory concentration) were calculated by nonlinear regression using GraphPad Prism 7.0. Y = Bottom + (Top - Bottom)/ (1 + 10^ ((LogIC50 - X) × Hill Slope)), where X is the log of compound concentration and Y is the % inhibition.

[2] abbreviates: ADP-Glo, ATP 6 µM, read-out: ULK2 (IC50).
The mark [3] stands for this setting: ADP-Glo, ATP 100 µM, read-out: ULK1 (IC50).

For orientation: pIC50 means the IC50 on a negative log10 scale, so that one unit is a factor of ten. One may read the AUC(0-t) as exposure summed from dosing to a finite time, without extrapolation to infinity. The Cmax is the maximum level reached in the sampled fluid or tissue. By Tmax is commonly meant the time at which the peak concentration occurs. In general, half-life refers to the time needed for the level to fall by half in the phase considered.

pIC50: −log10 of the molar value. Like-named read-outs stand apart in the source and are kept apart here.

FAK kinase, sequence (Q05397 whole entry): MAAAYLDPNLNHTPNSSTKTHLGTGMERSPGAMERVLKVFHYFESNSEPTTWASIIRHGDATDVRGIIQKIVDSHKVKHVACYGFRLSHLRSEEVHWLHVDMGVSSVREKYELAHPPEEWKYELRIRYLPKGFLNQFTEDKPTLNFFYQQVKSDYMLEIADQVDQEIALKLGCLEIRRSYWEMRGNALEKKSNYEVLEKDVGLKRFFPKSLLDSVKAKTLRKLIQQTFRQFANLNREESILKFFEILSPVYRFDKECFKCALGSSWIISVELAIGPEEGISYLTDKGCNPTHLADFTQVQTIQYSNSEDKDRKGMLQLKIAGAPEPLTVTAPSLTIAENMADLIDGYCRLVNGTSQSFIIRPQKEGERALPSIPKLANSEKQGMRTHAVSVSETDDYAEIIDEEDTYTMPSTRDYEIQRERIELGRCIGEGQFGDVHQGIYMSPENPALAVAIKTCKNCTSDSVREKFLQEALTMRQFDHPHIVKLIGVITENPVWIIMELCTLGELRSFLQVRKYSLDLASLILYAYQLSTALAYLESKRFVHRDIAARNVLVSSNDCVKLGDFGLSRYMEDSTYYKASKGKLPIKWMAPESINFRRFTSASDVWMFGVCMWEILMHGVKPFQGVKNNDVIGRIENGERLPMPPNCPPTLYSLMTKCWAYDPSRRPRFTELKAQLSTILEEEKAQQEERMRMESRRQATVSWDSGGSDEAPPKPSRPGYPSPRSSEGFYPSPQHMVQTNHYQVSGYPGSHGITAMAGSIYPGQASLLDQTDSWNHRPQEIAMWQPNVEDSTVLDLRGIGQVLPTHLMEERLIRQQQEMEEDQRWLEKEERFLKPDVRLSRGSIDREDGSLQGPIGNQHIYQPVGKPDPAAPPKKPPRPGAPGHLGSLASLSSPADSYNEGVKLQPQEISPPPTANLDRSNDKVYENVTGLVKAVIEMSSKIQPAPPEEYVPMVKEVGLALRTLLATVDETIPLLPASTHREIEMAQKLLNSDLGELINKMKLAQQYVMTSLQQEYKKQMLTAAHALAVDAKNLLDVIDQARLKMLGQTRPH

As for `CCc1cc2c(cc1Nc1ncc(C(F)(F)F)c(NCCCN3CCOCCC3=O)n1)OC[C@H]1CN(C)CCN21` [Compound A1R], the pIC50 at ULK2 kinase (setting [2]) was > 9.00. Besides, on ULK1 kinase (setting [3]), the pIC50 is > 8.52. Moreover, in data set [1], the AUC(0-t) at 24 h worked out at 326 ng·h/mL, the Cmax turned out to be 74.2 ng/mL, the Tmax came out at 1.2 h and the half-life is 1.5 h.

In the case of `CCc1cc2c(cc1Nc1ncc(C(F)(F)F)c(NCCCN3CCOCCC3=O)n1)OC[C@H]1CN(C3CCN(C)CC3)CCN21` [Compound A2R], the pIC50 against ULK2 kinase was > 8.30. Moreover, on ULK1 kinase, the pIC50 was > 8.52. For the same molecule, in data set [1], the AUC(0-t) at 24 h was found to be 1940 ng·h/mL, the peak concentration (Cmax) was 149 ng/mL, the Tmax is 8 h and the half-life was 8.8 h.

In the case of `CCc1cc2c(cc1Nc1ncc(C(F)(F)F)c(NCCCN3CCOCCC3=O)n1)OC[C@H]1CN(C3CCOCC3)CCN21` [Compound A3R], on ULK2 kinase, the pIC50 was > 9.00. In addition, the pIC50 at ULK1 kinase is > 8.52. Besides, in data set [1], the AUC(0-t) at 24 h worked out at 1040 ng·h/mL, the highest concentration (Cmax) amounted to 223 ng/mL, the Tmax was found to be 1.2 h and the half-life is 1.4 h.

In the case of `CCc1cc2c(cc1Nc1ncc(C(F)(F)F)c(NCCCN3CCCCC3=O)n1)OC[C@H]1CNCCN21` [Compound A5R], the pIC50 on ULK2 kinase (setting [2]) and on ULK1 kinase (setting [3]) was > 9.00 each time.

`CCc1cc2c(cc1Nc1ncc(C(F)(F)F)c(NCCCN3CCCCC3=O)n1)OC[C@H]1CN(C3CCOCC3)CCN21` [Compound A7R]: the figures for the pIC50 against ULK2 kinase and on ULK1 kinase were > 9.00 and > 8.52, respectively.

Take `COc1cc2c(cc1Nc1ncc(C(F)(F)F)c(CCc3ccccc3CC(N)=O)n1)OC[C@H]1CN(C3CCN(C)CC3)CCN21` [Compound B2R]: in data set [1], the AUC(0-t) at 24 h stood at 880 ng·h/mL, the concentration peaked (Cmax) at 76.4 ng/mL, the Tmax amounted to 4.7 h and the half-life was 7.4 h. In addition, at FAK kinase, the pIC50 is > 9.30.

Consider `COc1cc2c(cc1Nc1ncc(C(F)(F)F)c(CCc3ccccc3CC(N)=O)n1)OC[C@H]1CNCCN21` [Compound B3R], for which, in data set [1], the AUC(0-t) at 24 h was 690 ng·h/mL, the Cmax worked out at 68.9 ng/mL, the Tmax is 3.3 h and the half-life was 7.9 h. The pIC50 at FAK kinase (Table 2, HTRF, ATP 10 µM, read-out: FAK (method A) (IC50)) is > 9.30.

Regarding `COc1cc2c(cc1Nc1ncc(C(F)(F)F)c(CCc3ccccc3CC(N)=O)n1)OC[C@H]1CN(C3CCOCC3)CCN21` [Compound B4R], in data set [1], the exposure AUC(0-t) at 24 h amounted to 568 ng·h/mL, the concentration peaked (Cmax) at 200 ng/mL, the Tmax worked out at 0.8 h and the half-life is 1.5 h. The negative logarithm of the IC50 (pIC50) at FAK kinase was > 9.30.

On to `CCN1CCN2c3cc(OC)c(Nc4ncc(C(F)(F)F)c(CCc5ccccc5CC(N)=O)n4)cc3OC[C@H]2C1` [Compound B5R], for which, in data set [1], the AUC(0-t) at 24 h was determined as 685 ng·h/mL, the Cmax turned out to be 118 ng/mL, the Tmax came out at 2 h and the half-life is 2.8 h. At FAK kinase, the pIC50 is > 9.30.

As to `COc1cc2c(cc1Nc1ncc(C(F)(F)F)c(CCc3ccccc3CC(N)=O)n1)OC[C@H]1CN(C3CC3)CCN21` [Compound B6R], in data set [1], the AUC(0-t) at 24 h amounted to 905 ng·h/mL, the concentration peaked (Cmax) at 299 ng/mL, the Tmax was 1 h and the half-life is 1.3 h. For the same molecule, the pIC50 on FAK kinase is > 9.00.

As to `COc1cc2c(cc1Nc1ncc(C(F)(F)F)c(CCc3ccccc3CC(N)=O)n1)OC[C@H]1CN(C(C)=O)CCN21` [Compound B7R], in data set [1], the AUC(0-t) at 24 h is 1430 ng·h/mL, the highest level (Cmax) was 390 ng/mL, the Tmax was 2 h and the half-life is 1.2 h. For the same molecule, on FAK kinase, the pIC50 was > 9.30.

In the case of `COc1cc2c(cc1Nc1ncc(C(F)(F)F)c(CCc3ccccc3CC(N)=O)n1)OC[C@H]1CN(S(C)(=O)=O)CCN21` [Compound B8R], in data set [1], the AUC(0-t) at 24 h turned out to be 133 ng·h/mL, the Cmax was 39.3 ng/mL, the Tmax worked out at 1.7 h and the half-life is 1.5 h. Besides, at FAK kinase, the pIC50 is > 9.30.

For `COc1cc2c(cc1Nc1ncc(C(F)(F)F)c(CCc3ccccc3CC(N)=O)n1)OC[C@H]1CN(C3CN(C)C3)CCN21` [Compound B9R], in data set [1], the AUC(0-t) at 24 h turned out to be 368 ng·h/mL, the highest level (Cmax) was 61.8 ng/mL, the Tmax stood at 3.3 h and the half-life is 2.6 h. In addition, the pIC50 at FAK kinase was > 9.30.
